Laboratory results reported in ChEMBL document CHEMBL1201862, “PubChem BioAssay data set” (2004).
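Protocol summary: plate cells (96-well), add compound at 5 concentrations, incubate 48 h, interpolate endpoints linearly. GI50 marks 50% less growth.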 Activity calls are given as the source filed them. No stated cut-off is given here; in the data, active = GI50 up to about 1.1 µM and inactive = higher.

Columns and labels:
Assay in all cases: inhibition of tumour cell growth, NCI panel, 48 h
[1] = tested on: RPMI-8226
[2] = tested on: RXF 393
[3] = tested on: PC-3
[4] = tested on: NCI-H23
[5] = tested on: IGROV-1
[6] = tested on: A498
[7] = tested on: Malme-3M
[8] = tested on: UO-31
[9] = tested on: KM12
[10] = tested on: SF-268
[11] = tested on: OVCAR-5
[12] = tested on: CAKI-1
[13] = tested on: A549
[14] = tested on: HCC 2998
[15] = tested on: TK-10
[16] = tested on: NCI-H226
[17] = tested on: DU-145
[18] = tested on: HCT-116
[19] = tested on: SN12C
[20] = tested on: SK-MEL-2

| SMILES | GI50 [1] | GI50 [2] | GI50 [3] | GI50 [4] | GI50 [5] | GI50 [6] | GI50 [7] | GI50 [8] | GI50 [9] | GI50 [10] | GI50 [11] | GI50 [12] | GI50 [13] | GI50 [14] | GI50 [15] | GI50 [16] | GI50 [17] | GI50 [18] | GI50 [19] | GI50 [20] |
| --- | --- | --- | --- | --- | --- | --- | --- | --- | --- | --- | --- | --- | --- | --- | --- | --- | --- | --- | --- | --- |
| COc1ccc(/C(CC2OC(=O)c3ccccc32)=N\NC(=O)C[N+](C)(C)C)cc1 (stereo not given) | 15.2 µM (inactive) | 25.4 µM (inactive) | 47.8 µM (inactive) | 17.5 µM (inactive) | 34.4 µM (inactive) | 24.3 µM (inactive) | 31.1 µM (inactive) | 26.5 µM (inactive) | 21.2 µM (inactive) | 30.5 µM (inactive) | > 100 µM (inactive) | 40.3 µM (inactive) | 36 µM (inactive) | 16.3 µM (inactive) | 33.4 µM (inactive) | 21.7 µM (inactive) | 20.5 µM (inactive) | 22.5 µM (inactive) | 34.7 µM (inactive) | 23.9 µM (inactive) |
| S=C1SSC2N=CC=CC12 (stereo not given) | 63.8 µM (inactive) | 46.5 µM (inactive) | 63.4 µM (inactive) | > 100 µM (inactive) | 78.7 µM (inactive) | 29.9 µM (inactive) | 56 µM (inactive) | > 100 µM (inactive) | 17.3 µM (inactive) | > 100 µM (inactive) | > 100 µM (inactive) | 19.7 µM (inactive) | 47.1 µM (inactive) | 24.7 µM (inactive) | > 100 µM (inactive) | > 100 µM (inactive) | > 100 µM (inactive) | 92.9 µM (inactive) | > 100 µM (inactive) | > 100 µM (inactive) |
| N#Cc1cccc(C2ON=C(c3ccc([N+](=O)[O-])cc3)N2C23CC4CC(CC(C4)C2)C3)c1 (stereo not given) | > 100 µM (inactive) | 13.1 µM (inactive) | 5.2 µM (inactive) | > 100 µM (inactive) | > 100 µM (inactive) | > 100 µM (inactive) | 59.7 µM (inactive) | 24.1 µM (inactive) | > 100 µM (inactive) | > 100 µM (inactive) | 3.21 µM (inactive) | 11.7 µM (inactive) | 27.4 µM (inactive) | > 100 µM (inactive) | > 100 µM (inactive) | > 100 µM (inactive) | > 100 µM (inactive) | 6.21 µM (inactive) | > 100 µM (inactive) | 16.7 µM (inactive) |
| CC(C)(C)c1ccc2c(c1)OCc1n[nH]c(n1)COc1cc(C(C)(C)C)ccc1OCCOCCO2 | 2.99 µM (inactive) | 1.62 µM (inactive) | 2.41 µM (inactive) | 3.09 µM (inactive) | 5.69 µM (inactive) | 5.64 µM (inactive) | 2.07 µM (inactive) | 3.67 µM (inactive) | 3.85 µM (inactive) | 4.37 µM (inactive) | 5.96 µM (inactive) | 4.18 µM (inactive) | 3.01 µM (inactive) | 3.72 µM (inactive) | 2.58 µM (inactive) | 2.71 µM (inactive) | 6.52 µM (inactive) | 4.31 µM (inactive) | 4.55 µM (inactive) | 1.81 µM (inactive) |
| O=C(/C=C/c1ccccc1)c1ccccc1 [CHALCONE] | > 4.85 µM (inactive) | > 10 µM (inactive) | > 10 µM (inactive) | > 10 µM (inactive) | > 10 µM (inactive) | > 10 µM (inactive) | > 10 µM (inactive) | > 10 µM (inactive) | 3.78 µM (inactive) | > 10 µM (inactive) | > 10 µM (inactive) | > 10 µM (inactive) | > 10 µM (inactive) | > 10 µM (inactive) | > 10 µM (inactive) | > 10 µM (inactive) | > 10 µM (inactive) | 2.01 µM (inactive) | > 10 µM (inactive) | > 10 µM (inactive) |
| O=C1c2scnc2-c2nccc3c2c1nc1ccccc13 [KUANONIAMINE A] | 1.37 µM (inactive) | 1.77 µM (inactive) | 0.664 µM (active) | 0.223 µM (active) | 0.774 µM (active) | 1.26 µM (inactive) | 0.684 µM (active) | 1.16 µM (inactive) | 1.41 µM (inactive) | 1.78 µM (inactive) | 2.63 µM (inactive) | 1.63 µM (inactive) | 1.51 µM (inactive) | 1.15 µM (inactive) | 1.46 µM (inactive) | 1.44 µM (inactive) | 1.6 µM (inactive) | 0.272 µM (active) | 1.4 µM (inactive) | 1.01 µM (active) |
